In US20150190479A1, “DELIVERY OF CHOLESTERYL ESTER TO STEROIDOGENIC TISSUES” (ALPHACORE PHARMA, LLC, priority 2010, published 2015):

B1: lecithin-cholesterol acyltransferase (protein, UniProt P04180 25-440, looked up)
Phosphatidylcholine-sterol …: FWLLNVLFPPHTTPKAELSNHTRPVILVPGCLGNQLEAKLDKPDVVNWMCYRKTEDFFTIWLDLNMFLPLGVDCWIDNTRVVYNRSSGLVSNAPGVQIRVPGFGKTYSVEYLDSSKLAGYLHTLVQNLVNNGYVRDETVRAAPYDWRLEPGQQEEYYRKLAGLVEEMHAAYGKPVFLIGHSLGCLHLLYFLLRQPQAWKDRFIDGFISLGAPWGGSIKPMLVLASGDNQGIPIMSSIKLKEEQRITTTSPWMFPSRMAWPEDHVFISTPSFNYTGRDFQRFFADLHFEEGWYMWLQSRDLLAGLPAPGVEVYCLYGVGLPTPRTYIYDHGFPYTDPVGVLYEDGDDTVATRSTELCGLWQGRQPQPVHLLPLHGIQHLNMVFSNLTLEHINAILLGAYRQGPPASPTASPEPPPPE
notes: enzyme

Experiments:
Assay type in all cases: in vivo, human
[1] = Adrenal function of a trauma patient under treatment; conditions: car accident victim; combination of 150 mg/day anacetrapib and LCAT injection (40 mg) every 5 days
From the text: The efficacy of a particular dose may be assessed by reference noting the change in HDL-C or improvement in certain physiologic parameters. Suitable physiologic parameters include, but are not limited to, improved cortisol response to ACTH, improved cortisol levels, change in circulating levels of steroids, e.g., corticosteroids, glucocorticoids, cortisol, testosterone, estrogen, decreased inflammatory cytokines, and improved liver function.
A victim of a car accident with abdominal injuries is brought to the hospital. Their HDL is 55 mg/dl. As HDL routinely falls after trauma, the physician prescribes 150 mg/day anacetrapib and an injection of LCAT (40 mg) every 5 days until the patient is fully stabilized. This treatment maintained the patient's HDL at >75 mg/dl throughout their recovery. Adrenal function was maintained.

[2] = Testosterone level and complaints of a patient with low testosterone; conditions: HDL-C 25 mg/dl, 150 mg/day
Procedure: A patient complains of lethargy and impotence. Their testosterone levels are low, and their HDL-C is 25 mg/dl. The physician prescribes ancetrapib at a dose of 150 mg/day. […] The patient's original complaints are absent.

[3] = HDL-C level of a patient after treatment (illustrative patient examples); conditions: patient admitted for major surgery, HDL-C 25 mg/dl at admission; LCAT 40 mg given 24 hours prior to surgery
From the text: Measurement of biomarker levels and parameters described above may be measured using methods that are well known in the art. For example, change in HDL-CE level is easily detected with standard clinical laboratory procedures. Likewise, measuring the adrenal response to ACTH is commonly used in patients with suspected adrenal insufficiency. One of ordinary skill in the art would understand the significance of the results and may choose to adjust the dose based on assessments such as those described above.
A patient is admitted into the hospital for major surgery. The patients HDL-C level is 25 mg/dl. […] The patient is administered a dose of LCAT of 40 mg 24 hours prior to surgery. The patient's HDL-C is measured prior to surgery, and is now above 50 mg/di, thus greatly reducing risk of infection and/or death following the procedure.
A burn victim is stabilized in the hospital with an HDL-C level of 12 mg/dl. […] The patient is infused with rHDL at a dose of 25 mg/kg over a period of 5 hours, raising the patient's HDL-C by 50 mg/dl. In order to maintain this level of HDL, the patient is administered a 60 mg dose of LCAT. Cortisol levels are monitored periodically to determine if the adrenal function is normalized. […]
A patient is beginning to enter septic shock. […] Cortisol levels are monitored to determine if the adrenal function is normalized. […]

Molecule	adrenal function [1]	patient's original complaints (lethargy and impotence) [2]	testosterone level on recheck ([2]; rechecked 'For weeks later')	patient's HDL-C measured prior to surgery [3]
COc1cc(F)c(C(C)C)cc1-c1ccc(C(F)(F)F)cc1CN1C(=O)O[C@H](c2cc(C(F)(F)F)cc(C(F)(F)F)c2)[C@@H]1C [anacetrapib]	maintained	absent	within normal levels	–
B1	maintained	–	–	above 50 mg/di
